Measured values published in patent US10512642B2, “Therapeutic targeting of myeloproliferative neoplasms by DUSP1 inhibition” (Children's Hospital Medical Center, priority 2015, dated 2019).

Key:
[1] = tested on: K562 cells; test: Survival of K562 cells treated with imatinib +/- cytokines; type: cell-based, human
Procedure: (J) Real-time qPCR analysis illustrating expression of c-FOS, DUSP1, and ZFP36 in primary CML patient peripheral blood mononuclear cells normalized to CD34+ cells from normal volunteers (black bar). Four chronic phase (CP) and three blast crisis (BC) patients were analyzed.
BaF3 cells were generated with tetracycline-inducible expression of BCR/ABL (BaF3-LTBA, FIG. 3A), as well as those with constitutive BCR/ABL expression (BAF3-BCR/ABL, FIG. 3B).

[2] = tested on: JAK2; conditions: peripheral neuropathy and Wernicke encephalopathy; termination from phase III clinical trials; cited from earlier work
[3] = tested on: BCR/ABL induced leukemia; test: Retroviral bone marrow transduction transplantation CML model; conditions: mouse model of CML
Procedure: Kit^+ cells from mouse bone marrow were transduced with BCR/ABL-IRES-YFP retroviruses. Five thousand GFP^+ cells were plated for in vitro CFU assays, and 40,000 YFP^+ cells were transplanted for in vivo leukemia development in lethally irradiated C57Bl6 mice. […] Data shown are from two independent transplant experiments (n p=0.017). Below, Bar graphs illustrating leukemic burden in mice transplanted with BCR-ABL Kit^+ cells, measured by the level of YFP in peripheral blood as a surrogate for BCR/ABL expression.
For in vivo analysis, mice were transplanted with 40 thousand bone marrow Kit^+ cells expressing BCR/ABL and YFP.
To test c-Fos and Dusp1 as potential drug targets, in vitro and in vivo experiments were performed using small molecule inhibitors of c-Fos and Dusp1 (FIG. 5A). […] Representative data shown are the mean colony number from two independent experiments±S.D. (*=p<0.01, **=p<0.002). […] Data shown are from two independent transplant experiments (n=12; p=0.0285).
Next, in vivo efficacy was examined using a retroviral bone marrow transduction transplantation CML model.

[4] = tested on: MPN cells; test: Colony forming unit (CFU) assay of MPN cells; type: cell-based, mouse; conditions: in vitro CFU assay
Procedure: To test this, hematopoietic CFU assays were performed using mouse bone marrow-derived Kit+ cells transduced with retroviruses expressing, pMSCV-Ires-GFP (vector), Jak2-V617F-Ires-GFP, Mpl-W515L-ires-GFP, and CSF3R-T618IIres-GFP.
Given the limitations of in vitro assays, performed in vivo experiments were then performed using bone marrow transduction transplantation assays. For in vivo analysis, mice were transplanted with 80-100 thousand bone marrow Kit^+ cells expressing Jak2-V617F-ires-GFP, CSF3R-T618I-Ires-GFP and MSCV-Ires-GFP (vector control). Mice received […] developed fatal MPD with a disease latency of 4-6 months.

Cc1ccc(NC(=O)c2ccc(CN3CCN(C)CC3)cc2)cc1Nc1nccc(-c2cccnc2)n1 [imatinib]
effect of erythropoietin on imatinib response [1]: erythropoietin conferred imatinib resistance

Cc1cnc(Nc2ccc(OCCN3CCCC3)cc2)nc1Nc1cccc(S(=O)(=O)NC(C)(C)C)c1 [fedratinib]
neurological toxicity [2]: profound neurological toxicities

Cc1cc(Nc2nc(N[C@@H](C)c3ncc(F)cn3)ncc2Cl)n[nH]1 [AZD1480]
neurological toxicity [2]: profound neurological toxicities

O=C1/C(=C/c2ccccc2)C(NC2CCCCC2)c2ccccc21 (stereo not drawn) [BCI, (E)-2-benzylidene-3-(cyclohexylamino)-2,3-dihydro-1H-inden-1-one]
bioavailability [3]: bioavailable | target inhibition in vivo [3]: inhibits its designated target | targeting of MPN cells [4]: selective targeting of MPN cells
